Consider 14 molecules from ChEMBL document CHEMBL1201862, “PubChem BioAssay data set” (2004).

Test systems include NCI-H23; SW-620; HOP-62; SN12C; RPMI-8226; SF-268; UO-31; OVCAR-3; SNB-19; SF-295; HOP-92; HCT-15; HT-29; 786-0; HL-60; CCRF-CEM.
Holding throughout (assay): inhibition of tumour cell growth, NCI panel, 48 h

Structures are written as SMILES.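 A five-concentration, 48-hour dose response in 96-well plates underlies each endpoint, interpolated linearly between surrounding concentrations. Abbreviation: GI50, concentration required for 50% inhibition of growth.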 Calls of active or inactive are those of the source. Rule as the data show it: active = GI50 up to about 1.1 µM and inactive = higher.

Regarding `CCOC(=O)C(c1ccsc1)P(=O)(OCC)OCC` (stereo not given), the GI50 in the test with NCI-H23 is 16 µM (inactive); in the test with SW-620, 15.4 µM (inactive); in the test on HOP-62, 28.1 µM (inactive); in the test on SN12C, 13.3 µM (inactive); with RPMI-8226 it was 9.4 µM (inactive); with SF-268, 23.2 µM (inactive). In addition, the GI50 with UO-31 was 15 µM (inactive); in the test on OVCAR-3, 13.7 µM (inactive); with SNB-19, 21.5 µM (inactive); with SF-295, 17.3 µM (inactive); in the test on HOP-92, 24.3 µM (inactive); with HCT-15, 15 µM. For the same molecule, the figures for the GI50 in the test with HT-29 and with 786-0 were 15.9 µM (inactive) and 16.3 µM (inactive), respectively.

As to `O=C(Cc1nc2ccccc2o1)C(=O)Nc1cccc(Cl)c1`, the GI50 in the test with HL-60, in the test with NCI-H23, in the test on SW-620, in the test on HOP-62, with SN12C and in the test with SF-268 was > 100 µM (inactive) in each case. Moreover, the GI50 with UO-31 is > 100 µM (inactive); with OVCAR-3, > 100 µM (inactive); in the test on SNB-19, > 100 µM (inactive); in the test with SF-295 it was > 100 µM (inactive); with HOP-92, > 100 µM (inactive); with HCT-15, greater than 100 µM. Besides, the GI50 with CCRF-CEM, with HT-29 and in the test on 786-0 was > 100 µM (inactive) in each case.

As to `Cc1ccccc1NC(=O)c1cc(-c2ccc([N+](=O)[O-])cc2)nc(S)n1`, the GI50 in the test with HL-60, in the test with NCI-H23, with SW-620, in the test on HOP-62, with SN12C and in the test on SF-268 was > 100 µM (inactive) throughout. Further, the GI50 is > 100 µM (inactive) in the test with UO-31; > 100 µM (inactive) in the test on OVCAR-3; > 100 µM (inactive) in the test on SNB-19; > 100 µM (inactive) in the test with SF-295; > 100 µM (inactive) in the test with HOP-92; greater than 100 µM in the test with HCT-15. Besides, the results for the GI50 in the test with CCRF-CEM, with HT-29 and with 786-0 were > 10 µM (inactive), > 100 µM (inactive) and > 100 µM (inactive), respectively.

`COC(=O)/C(=N\NC(N)=O)C(C#N)c1ccccc1` (stereo not given): the GI50 with HL-60, with NCI-H23, with SW-620, with HOP-62, in the test on SN12C and with RPMI-8226 was > 100 µM (inactive) throughout. Further, the GI50 in the test on SF-268 was > 100 µM (inactive); with UO-31, > 100 µM (inactive); with OVCAR-3 it was > 100 µM (inactive); with SNB-19 it was > 100 µM (inactive); in the test on SF-295, > 100 µM (inactive); with HCT-15, greater than 100 µM. In addition, the GI50 in the test on CCRF-CEM, in the test on HT-29 and in the test with 786-0 was > 100 µM (inactive) in each case.

As to `CC(Oc1ccc(OCC2CCCCC2)cc1)C(N)=O` (stereo not given), the GI50 with HL-60, in the test with NCI-H23, in the test on SW-620, in the test on SN12C, in the test with SF-268 and with UO-31 was > 100 µM (inactive) throughout. Besides, the GI50 in the test on OVCAR-3 is > 100 µM (inactive); with SF-295 it was > 100 µM (inactive); in the test with HCT-15 it was greater than 100 µM; in the test with CCRF-CEM, > 100 µM (inactive); with HT-29, > 100 µM (inactive); in the test with 786-0, > 100 µM (inactive).

Regarding `CC1(C)CC(=O)C(/C(=N/NC(=S)NN)C(=O)Nc2nc3ccc([N+](=O)[O-])cc3s2)C(=O)C1`, the GI50 in the test with HL-60, with NCI-H23, in the test with SW-620, in the test on HOP-62, in the test on SN12C and in the test on SF-268 was > 100 µM (inactive) throughout. The GI50 in the test on UO-31 is 89.7 µM (inactive); in the test on OVCAR-3, 67.9 µM (inactive); with SNB-19 it was > 100 µM (inactive); in the test on SF-295 it was > 100 µM (inactive); with HOP-92, > 100 µM (inactive); in the test with HCT-15, greater than 100 µM. Further, the values for the GI50 with CCRF-CEM, in the test on HT-29 and with 786-0 were 38.2 µM (inactive), > 100 µM (inactive) and > 100 µM (inactive), respectively.

Take `Clc1ccc(-c2nnc3c4nnc(-c5ccc(Cl)cc5Cl)n4c4ccccc4n23)c(Cl)c1`: the GI50 with NCI-H23, in the test with SW-620, in the test on HOP-62, in the test on SN12C, in the test on RPMI-8226 and in the test on SF-268 was > 100 µM (inactive) each time. Also, the GI50 was > 100 µM (inactive) in the test on UO-31; > 100 µM (inactive) with OVCAR-3; 63.5 µM (inactive) in the test on SNB-19; > 100 µM (inactive) in the test with SF-295; 92.3 µM (inactive) in the test on HOP-92; greater than 100 µM in the test with HCT-15. Also, the GI50 in the test on CCRF-CEM is > 100 µM (inactive); in the test on HT-29, > 100 µM (inactive); in the test on 786-0 it was 82.4 µM (inactive).

With `O=C1CCC(=O)C12CCc1ccccc12`, the GI50 with HL-60, in the test with NCI-H23, with SW-620, in the test with HOP-62, with SN12C and with SF-268 was > 100 µM (inactive) throughout. The GI50 in the test with UO-31 is > 100 µM (inactive); with OVCAR-3 it was > 100 µM (inactive); with SF-295, > 100 µM (inactive); with HOP-92, > 100 µM (inactive); with HCT-15, greater than 100 µM; in the test on HT-29 it was > 100 µM (inactive). Also, in the test with 786-0, the GI50 is > 100 µM (inactive).

For `CC1=C(C(=O)Nc2cc(F)c(F)cc2F)C(c2ccc([N+](=O)[O-])cc2)C(C(=O)Nc2cc(F)c(F)cc2F)=C(C)N1`, the GI50 was 11.2 µM (inactive) in the test on HL-60; 31.8 µM (inactive) with NCI-H23; 48.2 µM (inactive) in the test with SW-620; 19.6 µM (inactive) in the test on HOP-62; 40.7 µM (inactive) in the test on SN12C; 14 µM (inactive) in the test with RPMI-8226. In addition, the GI50 with SF-268 is 22.2 µM (inactive); in the test with UO-31 it was 13.1 µM (inactive); in the test on OVCAR-3 it was 19.1 µM (inactive); with SNB-19, 48.6 µM (inactive); in the test with SF-295 it was 56.1 µM (inactive); with HOP-92, 12.8 µM (inactive). Also, the GI50 with CCRF-CEM was 16.5 µM (inactive); in the test with HT-29, 34.1 µM (inactive); in the test with 786-0, 42.7 µM (inactive).

In the case of `CCOC(=O)C(Cc1c(C=O)[nH]c2ccccc12)(NC(=O)c1ccccc1)C(=O)OCC`, the GI50 is > 100 µM (inactive) with HL-60; 13.7 µM (inactive) in the test on NCI-H23; 14.2 µM (inactive) in the test with SW-620; 13.2 µM (inactive) in the test on SN12C; > 100 µM (inactive) in the test with RPMI-8226; 15 µM (inactive) with SF-268. In addition, the GI50 was 16.1 µM (inactive) in the test on UO-31; 13 µM (inactive) with OVCAR-3; 4.93 µM (inactive) in the test with SNB-19; 14.4 µM (inactive) in the test on SF-295; 11.7 µM (inactive) in the test on HOP-92; 6.7 µM with HCT-15. In addition, the GI50 with CCRF-CEM is 6.87 µM (inactive); with HT-29 it was 16.4 µM (inactive); in the test on 786-0, 16.7 µM (inactive).

In the case of `COc1ccc(/C=C2\N=C(c3ccccc3)OC2=O)c(OCc2ccccc2)c1`, the GI50 with HL-60 was 40.4 µM (inactive); in the test on SW-620, > 100 µM (inactive); with HOP-62, 20.5 µM (inactive); in the test on SN12C, > 100 µM (inactive); in the test on RPMI-8226, 15.8 µM (inactive); with SF-268, 54.2 µM (inactive). In addition, the GI50 was > 100 µM (inactive) in the test with UO-31; 19 µM (inactive) in the test with OVCAR-3; 28.4 µM (inactive) with SNB-19; 17.9 µM (inactive) in the test with SF-295; 14.3 µM (inactive) in the test with CCRF-CEM; 20.1 µM (inactive) in the test on 786-0.

For the molecule `CC(C)=CCC/C(C)=C/Cc1c(O)c(C)cc2c1[nH]c1cc(O)ccc12`, the GI50 with HL-60, in the test on SW-620, in the test on HOP-62, in the test with SN12C, in the test with RPMI-8226 and in the test on SF-268 was > 25 µM (inactive) each time. The GI50 with UO-31 is > 25 µM (inactive); in the test on OVCAR-3, > 25 µM (inactive); with SNB-19, > 25 µM (inactive); in the test on HOP-92, > 25 µM (inactive); with HCT-15 it was greater than 25 µM; with CCRF-CEM, > 25 µM (inactive). Also, the GI50 in the test on HT-29 and in the test on 786-0 was > 25 µM (inactive) each time.

As for `O=C(C/C(=N\NC(=O)C[n+]1ccccc1)C(=O)Nc1nc2ccc([N+](=O)[O-])cc2s1)CC(c1ccccc1)c1c(O)c2ccccc2oc1=O` (stereo not given), the GI50 in the test on HL-60, in the test on NCI-H23, in the test with SW-620, in the test on HOP-62, in the test on SN12C and in the test on RPMI-8226 was > 100 µM (inactive) throughout. Also, the GI50 with SF-268 was > 100 µM (inactive); with UO-31, 67.5 µM (inactive); in the test with OVCAR-3 it was > 100 µM (inactive); with SNB-19 it was > 100 µM (inactive); in the test on SF-295 it was > 100 µM (inactive); in the test on HOP-92, > 100 µM (inactive). The GI50 in the test on CCRF-CEM, with HT-29 and in the test on 786-0 was > 100 µM (inactive) throughout.

On to `Cc1c2ccccc2cc2ccc3oc([N+](=O)[O-])cc3c12`, for which the GI50 with HL-60 is 3.93 µM (inactive); in the test with SW-620, > 100 µM (inactive); in the test with HOP-62, > 100 µM (inactive); in the test with SN12C it was > 100 µM (inactive); in the test on RPMI-8226, > 100 µM (inactive); with SF-268, > 100 µM (inactive). Moreover, the GI50 is > 100 µM (inactive) with UO-31; > 100 µM (inactive) in the test with OVCAR-3; > 100 µM (inactive) in the test with SNB-19; > 100 µM (inactive) with SF-295; > 100 µM (inactive) with HOP-92; greater than 100 µM in the test on HCT-15. The GI50 in the test on CCRF-CEM, in the test on HT-29 and with 786-0 was > 100 µM (inactive) in each case.
